Patent publication US7723468B2, “Antimicrobial peptide, compositions, and uses therefor” (De Sao Paulo Universida de, priority 2000, dated 2010)
Bridges are numbered along the chain shown (N, C = ends).

Tests used:
Type in all cases: cell-based
[1] = system: Gram-positive and Gram-negative bacteria and yeast; assay: Antimicrobial activity of head-to-tail cyclic gomesin, same growth inhibition assay (FIG. 3); settings: tested Gram-positive and Gram-negative bacteria and yeast
Procedure: (§1) The evaluation of activity against bacteria and fungi was done as described in J. Biol. Chem., 271, 29537-29544 (1996).
On FIG. 1, n.d. means “non-detected” for the tested concentration range of up to 100 μM for gomesin, while n.m. means not measured. The minimal inhibitory concentrations (MICs) of synthetic peptides are expressed as the [A]-[B] interval of concentrations, where [A] is the highest concentration tested at which the microorganisms are growing and [B] is the lowest concentration that causes 100% growth inhibition.
The antimicrobial activity of the head-to-tail cyclic gomesin peptide (SEQ ID No 3) was evaluated using the same assay described above.

[2] = system: bacteria, fungi and yeast; assay: Liquid growth inhibition assay, MIC activity spectrum (FIG. 1)
Procedure: The active fraction against the tested bacterium Micrococcus luteus of hemocytes (AGH2) is additionally purified by filtration chromatography. Elution is made under isocratic conditions with 30% acetonitrile in acidic water at a flow rate of 0.4 ml/min. HPLC (high performance liquid chromatography) purification was made at room temperature. The effluent column was monitored for its absorbance at 225 nm. Fractions corresponding to absorbance peaks were collected, concentrated under vacuum and reconstituted in MilliQ water. Anti-bacterial activity of the collected fractions was monitored by a liquid growth inhibition assay according to J. Biol. Chem., 268, 14893-14897 (1993), using Micrococcus luteus as the test microorganism.
as §1
On FIG. 1, n.d. means “non-detected” for the tested concentration range of up to 100 μM for gomesin, while n.m. means not measured. The minimal inhibitory concentrations (MICs) of synthetic peptides are expressed as the [A]-[B] interval of concentrations, where [A] is the highest concentration tested at which the microorganisms are growing and [B] is the lowest concentration that causes 100% growth inhibition. […]

Trypanosoma cruzi = assay: Anti-parasitic activity, MTT cell viability test (FIG. 4); settings: incubation one hour at 22° C., 0.1 to 100 μM
Procedure: (§2) As an example of anti-parasitic activity, the cell viability of Leishmania (leishmania) amazonensis (MRPO/BR/72/M 1841-LV-79) and Trypanosoma cruzi were evaluated, by making use of the MTT [3-(4,5-dimethyltiazolyl-2)-2,5-diphenyl tetrazolio bromide] test as described in J. Immunol. Methods 65, 55-63 (1983) and adapted for Leishmania spp, according to J. Immunol. Methods 127, 11-18 (1990).
(§3) Quantities from 0.1 to 100 μM were tested against Leishmania (leishmania) amazonensis and Trypanosoma cruzi. […] The death of parasites (%) was measured by making use of the MTT assay as described in J. Immunol. Methods 65, 55-63 (1983) and adapted for Leishmania spp, according to J. Immunol. Methods 127, 11-18 (1990).

[3] = system: Leishmania (leishmania) amazonensis (MRPO/BR/72/M 1841-LV-79); assay: as above; settings: incubation one hour at 22° C., 0.1 to 100 μM
Procedure: as §2, §3

Row | Substance | antimicrobial activity compared with native gomesin [1] | MIC (minimum inhibitory concentration) ([2]; for half of the 24 susceptible strains) | strains susceptible to gomesin ([2]; out of the 27 strains tested, concentration range up to 100 μM) | viability of parasites (death of parasites, %) (Trypanosoma cruzi) | viability of parasites (death of parasites, %) [3]
1 | QCRRLCYKQRCVTYCRGR (cyclo(QCRRLCYKQRCVTYCRGR); disulfide 6-11, 2-15; SMILES CC(C)C[C@@H]1NC(=O)[C@H](CCCNC(=N)N)NC(=O)[C@H](CCCNC(=N)N)NC(=O)[C@@H]2CSSC[C@H](NC(=O)[C@H](Cc3ccc(O)cc3)NC(=O)[C@H]([C@@H](C)O)NC(=O)[C@H](C(C)C)NC(=O)[C@@H]3CSSC[C@H](NC1=O)C(=O)N[C@@H](Cc1ccc(O)cc1)C(=O)N[C@@H](CCCCN)C(=O)N[C@@H](CCC(N)=O)C(=O)N[C@@H](CCCNC(=N)N)C(=O)N3)C(=O)N[C@@H](CCCNC(=N)N)C(=O)NCC(=O)N[C@@H](CCCNC(=N)N)C(=O)N[C@@H](CCC(N)=O)C(=O)N2) [head-to-tail cyclic gomesin, gomesin with closed ends] | identical to the activity of native gomesin |  |  |  | 
2 | ZCRRLCYKQRCVTYCRGRa [gomesin] |  | ≤ 1.6 µM | 24 strains | dependent on the concentration of gomesin | dependent on the concentration of gomesin
